Inconclusive results and toxic doses are left out.

The record followed here is PubChem BioAssay AID256 (DTP/NCI, 2004).

The subject of the test is CD2F1 mice, L1210 leukemia ip, survival T/C. Kind of test: NCI In Vivo Anticancer Drug Screen. Data for tumor model L1210 Leukemia (intraperitoneal) in CD2F1 (CDF1) mice. The settings on record: higher = longer survival. The gist of the method:
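In this screen, transplantable tumors were grown in mice given either the compound or its vehicle. Results were expressed as the treated measurement relative to the control measurement.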

Setting [1] is: endpoint: mean survival time, dose: 100.0 mg/kg/injection, schedule: Q01DX009 (ip), vehicle: saline with Tween-80.
Setting [2] is: endpoint: mean survival time, dose: 100.0 mg/kg/injection, schedule: Q04DX003 (ip), vehicle: saline with Tween-80.
Setting [3] is: endpoint: mean survival time, dose: 200.0 mg/kg/injection, schedule: Q01DX009 (ip), vehicle: saline with Tween-80.
[4] abbreviates: endpoint: mean survival time, dose: 200.0 mg/kg/injection, schedule: Q04DX003 (ip), vehicle: saline with Tween-80.
The mark [5] stands for this setting: endpoint: mean survival time, dose: 400.0 mg/kg/injection, schedule: Q01DX009 (ip), vehicle: saline with Tween-80.
[6] abbreviates: endpoint: mean survival time, dose: 400.0 mg/kg/injection, schedule: Q04DX003 (ip), vehicle: saline with Tween-80.
[7] abbreviates: endpoint: mean survival time, dose: 100.0 mg/kg/injection, schedule: Q01DX001 (ip), vehicle: saline with Tween-80.
[8] abbreviates: endpoint: mean survival time, dose: 100.0 mg/kg/injection, schedule: Q04DX003 (ip), vehicle: saline.
The mark [9] stands for this setting: endpoint: mean survival time, dose: 200.0 mg/kg/injection, schedule: Q01DX001 (ip), vehicle: saline with Tween-80.
Where [10] appears, read: endpoint: mean survival time, dose: 200.0 mg/kg/injection, schedule: Q04DX003 (ip), vehicle: saline.
The mark [11] stands for this setting: endpoint: mean survival time, dose: 400.0 mg/kg/injection, schedule: Q01DX001 (ip), vehicle: saline with Tween-80.
Setting [12] is: endpoint: mean survival time, dose: 400.0 mg/kg/injection, schedule: Q04DX003 (ip), vehicle: saline.
The mark [13] stands for this setting: endpoint: mean survival time, dose: 50.0 mg/kg/injection, schedule: Q01DX009 (ip), vehicle: saline with Tween-80.

With `CCOC(=O)CCC(NC(=O)c1ccc(NCc2cnc3nc(N)nc(N)c3c2)cc1)C(=O)OCC` (stereo not given), the T/C (endpoint: median survival time, dose: 1.0 mg/kg/injection, schedule: Q01DX005 (ip), vehicle: saline with Tween-80) was 153 % of control and the T/C (endpoint: median survival time, dose: 2.0 mg/kg/injection, schedule: Q01DX005 (ip), vehicle: saline with Tween-80) was 174 % of control.
`CC(C)C1=CC2=C(CC1)C1(C)CCCC(C)(C(=O)O)C1CC2` (stereo not given): the T/C runs as follows: under setting [1], 98 % of control; under setting [2], 104 % of control; under setting [3], 96 % of control; under setting [4], 98 % of control; under setting [5], 89 % of control; under setting [6], 93 % of control.
Consider `N[N+]#COC1C(C(=O)NN)C1C(=O)NN` (stereo not given), for which the T/C is, setting by setting: (endpoint: median survival time, dose: 50.0 mg/kg/injection, schedule: Q04DX002 (ip), vehicle: saline with Tween-80) 94 % of control; (endpoint: median survival time, dose: 100.0 mg/kg/injection, schedule: Q04DX002 (ip), vehicle: saline with Tween-80) 105 % of control; (endpoint: median survival time, dose: 400.0 mg/kg/injection, schedule: Q04DX002 (ip), vehicle: saline with Tween-80) 105 % of control.
`CCOC(=O)c1csc(-c2csc(CCNC(=O)c3ccccc3)n2)n1`: the T/C runs as follows: under setting [7], 97 % of control; under setting [1], 102 % of control; under setting [8], 96 % of control; under setting [9], 98 % of control; under setting [3], 100 % of control; under setting [10], 101 % of control. The T/C is 101 % of control under setting [11], 96 % of control under setting [5] and 95 % of control under setting [12].
As to `CS(=O)(=O)OCCN(CCOS(C)(=O)=O)c1cccc(Cl)c1`, the T/C was 112 % of control (endpoint: mean survival time, dose: 2.0 mg/kg/injection, schedule: Q01DX010 (ip), vehicle: saline); 112 % of control (endpoint: mean survival time, dose: 4.0 mg/kg/injection, schedule: Q01DX010 (ip), vehicle: saline); 116 % of control (endpoint: mean survival time, dose: 4.0 mg/kg/injection, schedule: Q01DX015 (ip), vehicle: saline); 150 % of control (endpoint: mean survival time, dose: 8.0 mg/kg/injection, schedule: Q01DX010 (ip), vehicle: saline); 119 % of control (endpoint: mean survival time, dose: 8.0 mg/kg/injection, schedule: Q01DX015 (ip), vehicle: saline).
In the case of `COc1ccc(OC)c(NC(=O)NNC(=O)CNC(=O)Nc2cccc(C)n2)c1`, the T/C by setting is: under setting [3], 92 % of control; under setting [5], 88 % of control.
Consider `[Cl][Pt+2][Cl].[NH-]Cc1ccccc1.[NH-]Cc1ccccc1`, for which the T/C was 110 % of control (endpoint: mean survival time, dose: 50.0 mg/kg/injection, schedule: Q01DX001 (ip), vehicle: saline with Tween-80); 110 % of control under setting [7]; 110 % of control under setting [9].
On to `O=[N+]([O-])c1cccc2c1ccc1cccnc12`, for which the T/C was 90 % of control (endpoint: mean survival time, dose: 100.0 mg/kg/injection, schedule: Q04DX002 (ip), vehicle: saline with Tween-80); 95 % of control (endpoint: mean survival time, dose: 200.0 mg/kg/injection, schedule: Q04DX002 (ip), vehicle: saline with Tween-80); 98 % of control (endpoint: mean survival time, dose: 400.0 mg/kg/injection, schedule: Q04DX002 (ip), vehicle: saline with Tween-80).
With `CCCC(Br)C(=O)OCC` (stereo not given), the T/C was 96 % of control under setting [13], 93 % of control under setting [1] and 93 % of control under setting [3].
With `CCn1c(COc2ccc(Br)cc2)c(COC(=O)c2cccc(Cl)c2)c2ccccc21`, the T/C by setting is: under setting [1], 94 % of control; under setting [3], 92 % of control; under setting [5], 94 % of control.
In the case of `Nc1nnn(CCO)n1`, the T/C was 100 % of control under setting [1], 97 % of control under setting [3] and 96 % of control under setting [5].
As to `O=[N+]([O-])c1cccc(SNc2cccc(Cl)c2)c1`, the T/C (endpoint: mean survival time, dose: 25.0 mg/kg/injection, schedule: Q01DX009 (ip), vehicle: saline with Tween-80) is 102 % of control; the T/C under setting [13] was 90 % of control; the T/C under setting [1] was 94 % of control.
On to `Cc1ccc(C(=O)c2ccc([N+](=O)[O-])cc2)cc1`, for which the T/C is, setting by setting: under setting [2], 94 % of control; under setting [4], 94 % of control.
`COC1CC(O)C2OC(c3ccccc3)OCC2O1` (stereo not given): the T/C is, setting by setting: under setting [2], 104 % of control; under setting [4], 93 % of control; under setting [6], 107 % of control.
Consider `COC(C)C(O)(c1ccccc1)c1ccccc1` (stereo not given), for which the T/C was 101 % of control under setting [13], 101 % of control under setting [1] and 96 % of control under setting [3].
`O=C(O)CCc1cccnc1`: the T/C was 95 % of control under setting [1], 104 % of control under setting [3] and 111 % of control under setting [5].
For the compound `O=S(=O)(O)SCc1ccccc1CSS(=O)(=O)O`, the T/C reads like this: under setting [8], 96 % of control; under setting [10], 101 % of control; under setting [12], 108 % of control.
As to `O=S1(=O)C2CCCCCC2(N2CCOCC2)C1C1CCCCC1` (stereo not given), the T/C reads like this: under setting [2], 95 % of control; under setting [4], 95 % of control; under setting [6], 97 % of control.
For `[CH3][Sn]([Br])([Br])[CH2]CCCBr`, the T/C was 90 % of control (endpoint: mean survival time, dose: 0.39 mg/kg/injection, schedule: Q01DX009 (ip), vehicle: saline); 97 % of control (endpoint: mean survival time, dose: 0.78 mg/kg/injection, schedule: Q01DX009 (ip), vehicle: saline); 97 % of control (endpoint: mean survival time, dose: 1.56 mg/kg/injection, schedule: Q01DX009 (ip), vehicle: saline); 110 % of control (endpoint: mean survival time, dose: 6.25 mg/kg/injection, schedule: Q01DX009 (ip), vehicle: saline).
`NCCc1c[nH]c2ccccc12` (tested in a mixture with another compound): the T/C is, setting by setting: under setting [2], 97 % of control; under setting [4], 101 % of control; under setting [6], 94 % of control.
Turning to `CC(C)(C)CC(C)(C)c1ccc(O)c(Cl)c1`, the T/C under setting [2] was 96 % of control, the T/C under setting [4] was 100 % of control and the T/C under setting [6] was 106 % of control.
The matching figures for `CCOP(=O)(OCC)/C(C#N)=C\c1ccc(O)c(OC)c1`: 98 % of control, 101 % of control and 96 % of control.
As to `O=C1OC(=O)C2C3c4ccccc4C(c4c3c(-c3ccccc3)c3ccccc3c4-c3ccccc3)C12` (stereo not given), the T/C runs as follows: under setting [7], 87 % of control; under setting [9], 87 % of control; under setting [11], 93 % of control.
Regarding `CCOC(=O)CC1=Nc2c(Cl)ncnc2NN1`, the T/C was 95 % of control (endpoint: mean survival time, dose: 100.0 mg/kg/injection, schedule: Q01DX001 (ip), vehicle: carboxymethylcellulose (CMC)) and 91 % of control (endpoint: mean survival time, dose: 200.0 mg/kg/injection, schedule: Q01DX001 (ip), vehicle: carboxymethylcellulose (CMC)).
As for `c1ccc(-c2csc3c4ccccc4c4ccccc4[n+]23)cc1`, the T/C was 104 % of control (endpoint: mean survival time, dose: 0.5 mg/kg/injection, schedule: Q01DX009 (ip), vehicle: saline); 112 % of control (endpoint: mean survival time, dose: 1.0 mg/kg/injection, schedule: Q01DX009 (ip), vehicle: saline); 112 % of control (endpoint: mean survival time, dose: 2.0 mg/kg/injection, schedule: Q01DX009 (ip), vehicle: saline); 106 % of control (endpoint: mean survival time, dose: 4.0 mg/kg/injection, schedule: Q01DX009 (ip), vehicle: saline); 101 % of control (endpoint: mean survival time, dose: 8.0 mg/kg/injection, schedule: Q01DX009 (ip), vehicle: saline).
